Experimental findings from US12162890B2 (Novartis AG, priority 2015, dated 2024) are described below.

The experiment deals with HEK293 cells with stable expression of the GRIN1 gene and tetracycline-inducible expression of the GRIN2B gene (NMDA receptor, NR2B) (Homo sapiens, UniProt Q13224). Kind of experiment: Fluo-8 Ca2+ flux assay: reversal of Ro 25-6981-mediated suppression of the Ca2+ response to co-agonist (glutamate/glycine). Note: test concentration or dose not given here. Format: cell-based. Conditions: reversal of the Ro 25-6981 suppression of the Ca2+ response to co-agonist (glutamate/glycine).
Sequence of HEK293 cells with stable expression of the GRIN1 gene and tetracycline-inducible expression of the GRIN2B gene (NMDA receptor, NR2B) (Q13224 27-1484, other chains not shown): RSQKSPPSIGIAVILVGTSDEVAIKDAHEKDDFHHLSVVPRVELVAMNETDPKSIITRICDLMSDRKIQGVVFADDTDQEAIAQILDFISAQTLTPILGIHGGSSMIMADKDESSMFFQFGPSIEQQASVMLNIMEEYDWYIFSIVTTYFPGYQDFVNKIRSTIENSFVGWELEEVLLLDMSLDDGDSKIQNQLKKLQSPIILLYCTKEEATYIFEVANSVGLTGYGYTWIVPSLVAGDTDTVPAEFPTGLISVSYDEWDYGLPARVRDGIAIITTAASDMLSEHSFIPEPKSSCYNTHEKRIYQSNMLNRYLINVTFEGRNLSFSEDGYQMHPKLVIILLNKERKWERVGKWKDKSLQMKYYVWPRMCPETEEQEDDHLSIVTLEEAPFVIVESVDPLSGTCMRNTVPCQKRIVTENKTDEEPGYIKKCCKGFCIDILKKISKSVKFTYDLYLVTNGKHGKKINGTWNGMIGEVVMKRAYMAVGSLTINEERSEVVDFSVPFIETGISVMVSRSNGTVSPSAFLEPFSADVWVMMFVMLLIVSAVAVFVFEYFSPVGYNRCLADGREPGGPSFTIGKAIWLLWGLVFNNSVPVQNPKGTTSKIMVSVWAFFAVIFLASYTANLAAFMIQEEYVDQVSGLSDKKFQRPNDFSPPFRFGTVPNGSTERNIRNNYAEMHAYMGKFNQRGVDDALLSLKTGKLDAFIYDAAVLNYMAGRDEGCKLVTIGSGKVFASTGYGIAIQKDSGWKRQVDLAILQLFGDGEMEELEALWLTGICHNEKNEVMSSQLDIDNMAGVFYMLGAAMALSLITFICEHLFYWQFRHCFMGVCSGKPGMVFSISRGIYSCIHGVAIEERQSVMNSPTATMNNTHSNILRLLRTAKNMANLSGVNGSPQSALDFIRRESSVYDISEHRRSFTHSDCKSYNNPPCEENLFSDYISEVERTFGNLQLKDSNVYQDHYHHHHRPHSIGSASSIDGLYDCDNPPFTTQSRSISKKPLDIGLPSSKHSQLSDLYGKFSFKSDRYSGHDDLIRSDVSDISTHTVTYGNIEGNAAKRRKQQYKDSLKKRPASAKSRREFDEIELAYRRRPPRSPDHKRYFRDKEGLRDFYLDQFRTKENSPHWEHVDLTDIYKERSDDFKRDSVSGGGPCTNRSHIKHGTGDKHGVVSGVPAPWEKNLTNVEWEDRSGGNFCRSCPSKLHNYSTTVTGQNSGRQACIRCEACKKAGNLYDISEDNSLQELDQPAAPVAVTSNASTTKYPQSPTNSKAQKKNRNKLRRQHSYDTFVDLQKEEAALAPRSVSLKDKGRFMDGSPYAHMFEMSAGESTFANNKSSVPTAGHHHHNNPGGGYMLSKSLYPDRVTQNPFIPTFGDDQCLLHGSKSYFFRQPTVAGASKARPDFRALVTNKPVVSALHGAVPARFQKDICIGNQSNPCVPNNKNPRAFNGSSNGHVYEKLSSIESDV
Regarding `O=C(Cn1ccc2[nH]cc(-c3ccc(F)c(Cl)c3)c2c1=O)N1CC(F)(F)C1` [Example 218, 3-(3-chloro-4-fluorophenyl)-5-(2-(3,3-difluoroazetidin-1-yl)-2-oxoethyl)-1H-pyrrolo[3,2-c]pyridin-4(5H)-one], the “Response Recovered (%)” value worked out at 71%.
The figure for `O=C(Cn1ccc2[nH]cc(-c3ccc(F)c(C(F)(F)F)c3)c2c1=O)N1CCCC1` [Example 219, 3-(4-fluoro-3-(trifluoromethyl)phenyl)-5-(2-oxo-2-(pyrrolidin-1-yl)ethyl)-1H-pyrrolo[3,2-c]pyridin-4(5H)-one] is 91%; for `O=C(Cn1ccc2[nH]cc(-c3ccc(F)c(C(F)(F)F)c3)c2c1=O)N1CC(F)C(F)C1` (stereo not shown) [Example 220, 5-(2-(3,4-difluoropyrrolidin-1-yl)-2-oxoethyl)-3-(4-fluoro-3-(trifluoromethyl)phenyl)-1H-pyrrolo[3,2-c]pyridin-4(5H)-one] it is 120%; for `O=C(Cn1ccc2[nH]cc(-c3cnc(Cl)c(C(F)(F)F)c3)c2c1=O)N1CC(F)C(F)C1` (stereo not shown) [Example 221, 3-(6-chloro-5-(trifluoromethyl)pyridin-3-yl)-5-(2-(3,4-difluoropyrrolidin-1-yl)-2-oxoethyl)-1H-pyrrolo[3,2-c]pyridin-4(5H)-one] it is 43%.
The figure for `CC1(F)CN(C(=O)Cn2ccc3[nH]cc(-c4ccc(F)c(C(F)(F)F)c4)c3c2=O)C1` [Example 222, 3-(4-fluoro-3-(trifluoromethyl)phenyl)-5-(2-(3-fluoro-3-methylazetidin-1-yl)-2-oxoethyl)-1H-pyrrolo[3,2-c]pyridin-4(5H)-one] is 86%; for `O=C(Cn1ccc2c(c(-c3ccc(Cl)c(C(F)(F)F)c3)cn2-c2ccccn2)c1=O)N1CCC(F)C1` (stereo not shown) [Example 224, 3-(4-chloro-3-(trifluoromethyl)phenyl)-5-(2-(3-fluoropyrrolidin-1-yl)-2-oxoethyl)-1-(pyridin-2-yl)-1H-pyrrolo[3,2-c]pyridin-4(5H)-one] it is 109%; for `O=C(Cn1ccc2c(c(-c3ccc(F)c(C(F)(F)F)c3)cn2-c2ccccn2)c1=O)N1CCC(F)C1` (stereo not shown) [Example 225, 3-(4-fluoro-3-(trifluoromethyl)phenyl)-5-(2-(3-fluoropyrrolidin-1-yl)-2-oxoethyl)-1-(pyridin-2-yl)-1H-pyrrolo[3,2-c]pyridin-4(5H)-one] it is 83%.
As to `O=C(Cn1ccc2c(c(-c3ccc(F)c(Cl)c3)cn2-c2ccccn2)c1=O)N1CCC(F)C1` (stereo not shown) [Example 228, 3-(4-chloro-4-fluorophenyl)-5-(2-(3-fluoropyrrolidin-1-yl)-2-oxoethyl)-1-(pyridin-2-yl)-1H-pyrrolo[3,2-c]pyridin-4(5H)-one], the “Response Recovered (%)” value was 39%.
In the case of `O=C(Cn1ccc2c(c(-c3ccc(Cl)c(Cl)c3)cn2-c2ccccn2)c1=O)N1CCC(F)C1` (stereo not shown) [Example 229, 3-(3,4-dichlorophenyl)-5-(2-(3-fluoropyrrolidin-1-yl)-2-oxoethyl)-1-(pyridin-2-yl)-1H-pyrrolo[3,2-c]pyridin-4(5H)-one], the “Response Recovered (%)” value was 78%.
The figure for `O=C(Cn1ccc2c(c(-c3ccc(F)c(C(F)(F)F)c3)cn2-c2ccccc2)c1=O)N1CCC(F)C1` (stereo not shown) [Example 230, 3-(4-fluoro-3-(trifluoromethyl)phenyl)-5-(2-(3-fluoropyrrolidin-1-yl)-2-oxoethyl)-1-phenyl-1H-pyrrolo[3,2-c]pyridin-4(5H)-one] is 109%; for `O=C(Cn1ccc2c(c(-c3ccc(F)c(C(F)(F)F)c3)cn2C2CC2)c1=O)N1CCC(F)C1` (stereo not shown) [Example 231, 1-cyclopropyl-3-(4-fluoro-3-(trifluoromethyl)phenyl)-5-(2-(3-fluoropyrrolidin-1-yl)-2-oxoethyl)-1H-pyrrolo[3,2-c]pyridin-4(5H)-one] it is 90%; for `O=C(Cn1ccc2c(c(-c3ccc(F)c(Cl)c3)cn2C2CC2)c1=O)N1CCC(F)C1` (stereo not shown) [Example 232, 3-(3-chloro-4-fluorophenyl)-1-cyclopropyl-5-(2-(3-fluoropyrrolidin-1-yl)-2-oxoethyl)-1H-pyrrolo[3,2-c]pyridin-4(5H)-one] it is 66%.
As for `O=C(Cn1ccc2c(c(-c3ccc(Cl)c(Cl)c3)cn2C2CC2)c1=O)N1CCC(F)C1` (stereo not shown) [Example 233, 1-cyclopropyl-3-(3,4-dichlorophenyl)-5-(2-(3-fluoropyrrolidin-1-yl)-2-oxoethyl)-1H-pyrrolo[3,2-c]pyridin-4(5H)-one], the “Response Recovered (%)” value is recorded as 85%.
The figure for `Cn1cc(-n2cc(-c3ccc(F)c(C(F)(F)F)c3)c3c(=O)n(CC(=O)N4CCC(F)C4)ccc32)cn1` (stereo not shown) [Example 234] is 80%.
The figure for `Cn1cc(-n2cc(-c3ccc(F)c(Cl)c3)c3c(=O)n(CC(=O)N4CCC(F)C4)ccc32)cn1` (stereo not shown) [Example 235, 3-(3-chloro-4-fluorophenyl)-5-(2-(3-fluoropyrrolidin-1-yl)-2-oxoethyl)-1-(1-methyl-1H-pyrazol-4-yl)-1H-pyrrolo[3,2-c]pyridin-4(5H)-one] is 40%; for `Cn1cc(-n2cc(-c3ccc(F)c(C(F)(F)F)c3)c3c(=O)n(CC(=O)N4CC(C)(F)C4)ccc32)cn1` [Example 236, 3-(4-fluoro-3-(trifluoromethyl)phenyl)-5-(2-(3-fluoro-3-methylazetidin-1-yl)-2-oxoethyl)-1-(1-methyl-1H-pyrazol-4-yl)-1H-pyrrolo[3,2-c]pyridin-4(5H)-one] it is 140%.
As to `CCC1(F)CN(C(=O)Cn2ccc3c(c(-c4ccc(F)c(Cl)c4)cn3C3CC3)c2=O)C1` [Example 237, 3-(3-chloro-4-fluorophenyl)-1-cyclopropyl-5-(2-(3-ethyl-3-fluoroazetidin-1-yl)-2-oxoethyl)-1H-pyrrolo[3,2-c]pyridin-4(5H)-one], the “Response Recovered (%)” value was found to be 79%.
For `COCn1cc(-c2ccc(F)c(C(F)(F)F)c2)c2c(=O)n(CC(=O)N3CCC(F)C3)ccc21` (stereo not shown) [Example 238, 3-(4-fluoro-3-(trifluoromethyl)phenyl)-5-(2-(3-fluoropyrrolidin-1-yl)-2-oxoethyl)-1-(methoxymethyl)-1H-pyrrolo[3,2-c]pyridin-4(5H)-one], the “Response Recovered (%)” value was 65%.
The figure for `CCn1cc(-c2ccc(F)c(C(F)(F)F)c2)c2c(=O)n(CC(=O)N3CCC(F)C3)ccc21` (stereo not shown) [Example 239, 1-ethyl-3-(4-fluoro-3-(trifluoromethyl)phenyl)-5-(2-(3-fluoropyrrolidin-1-yl)-2-oxoethyl)-1H-pyrrolo[3,2-c]pyridin-4(5H)-one] is 86%; for `CN(C)CCn1cc(-c2ccc(F)c(C(F)(F)F)c2)c2c(=O)n(CC(=O)N3CCC(F)C3)ccc21` (stereo not shown) [Example 240] it is 29%; for `CCOCn1cc(-c2ccc(F)c(C(F)(F)F)c2)c2c(=O)n(CC(=O)N3CCC(F)C3)ccc21` (stereo not shown) [Example 241, 1-(ethoxymethyl)-3-(4-fluoro-3-(trifluoromethyl)phenyl)-5-(2-(3-fluoropyrrolidin-1-yl)-2-oxoethyl)-1H-pyrrolo[3,2-c]pyridin-4(5H)-one] it is 61%.
Regarding `COCn1cc(-c2ccc(F)c(C(F)(F)F)c2)c2c(=O)n(CC(=O)N3CC(F)C(F)C3)ccc21` (stereo not shown) [Example 242, 5-(2-(3,4-difluoropyrrolidin-1-yl)-2-oxoethyl)-3-(4-fluoro-3-(trifluoromethyl)phenyl)-1-(methoxymethyl)-1H-pyrrolo[3,2-c]pyridin-4(5H)-one], the “Response Recovered (%)” value is recorded as 110%.
Next, `O=C(Cn1ccc2c(c(-c3ccc(F)c(C(F)(F)F)c3)cn2-c2ncccn2)c1=O)N1CCC(F)C1` (stereo not shown) [Example 243, 3-(4-fluoro-3-(trifluoromethyl)phenyl)-5-(2-(3-fluoropyrrolidin-1-yl)-2-oxoethyl)-1-(pyrimidin-2-yl)-1H-pyrrolo[3,2-c]pyridin-4(5H)-one]: 96%; `O=C(Cn1ccc2c(c(-c3ccc(F)c(C(F)(F)F)c3)cn2-c2ccncn2)c1=O)N1CCC(F)C1` (stereo not shown) [Example 244, 3-(4-fluoro-3-(trifluoromethyl)phenyl)-5-(2-(3-fluoropyrrolidin-1-yl)-2-oxoethyl)-1-(pyrimidin-4-yl)-1H-pyrrolo[3,2-c]pyridin-4(5H)-one]: 110%.
As for `CN(C)CCn1cc(-c2ccc(F)c(Cl)c2)c2c(=O)n(CC(=O)N3CCC(F)C3)ccc21` (stereo not shown) [Example 245, 3-(3-chloro-4-fluorophenyl)-1-(2-(dimethylamino)ethyl)-5-(2-(3-fluoropyrrolidin-1-yl)-2-oxoethyl)-1H-pyrrolo[3,2-c]pyridin-4(5H)-one], the “Response Recovered (%)” value came out at 14%.
Next, `COCn1cc(-c2ccc(F)c(Cl)c2)c2c(=O)n(CC(=O)N3CCC(F)C3)ccc21` (stereo not shown) [Example 246, 3-(3-chloro-4-fluorophenyl)-5-(2-(3-fluoropyrrolidin-1-yl)-2-oxoethyl)-1-(methoxymethyl)-1H-pyrrolo[3,2-c]pyridin-4(5H)-one]: 34%; `Cn1cc(-c2ccc(F)c(Cl)c2)c2c(=O)n(CC(=O)N3CCC(F)C3)ccc21` (stereo not shown) [Example 247, 3-(3-chloro-4-fluorophenyl)-5-(2-(3-fluoropyrrolidin-1-yl)-2-oxoethyl)-1-methyl-1H-pyrrolo[3,2-c]pyridin-4(5H)-one]: 51%.
On to `O=C(Cn1ccc2c(c(-c3ccc(F)c(Cl)c3)cn2-c2ccncn2)c1=O)N1CCC(F)C1` (stereo not shown) [Example 248], for which the “Response Recovered (%)” value was determined as 59%.
The figure for `COCn1cc(-c2ccc(Cl)c(Cl)c2)c2c(=O)n(CC(=O)N3CCC(F)C3)ccc21` (stereo not shown) [Example 249, 3-(3,4-dichlorophenyl)-5-(2-(3-fluoropyrrolidin-1-yl)-2-oxoethyl)-1-(methoxymethyl)-1H-pyrrolo[3,2-c]pyridin-4(5H)-one] is 70%; for `Cn1cc(-c2ccc(Cl)c(Cl)c2)c2c(=O)n(CC(=O)N3CCC(F)C3)ccc21` (stereo not shown) [Example 250, 3-(3,4-dichlorophenyl)-5-(2-(3-fluoropyrrolidin-1-yl)-2-oxoethyl)-1-methyl-1H-pyrrolo[3,2-c]pyridin-4(5H)-one] it is 62%; for `Cn1cc(-c2ccc(F)c(C(F)(F)F)c2)c2c(=O)n(CC(=O)N3CCC(F)C3)ccc21` (stereo not shown) [Example 251] it is 61%.
